Paper PMC4961458 (eLife, 2016)
No end group written: not given here.

How the values were obtained:
GR = target: T1, GR (Homo sapiens, UniProt P04150); experiment: GR transcriptional reporter assay, agonist mode (CV1 cells); type: cell-based; settings: CV-1; % of maximal dexamethasone-stimulated activity
T1 sequence (P04150 1-777): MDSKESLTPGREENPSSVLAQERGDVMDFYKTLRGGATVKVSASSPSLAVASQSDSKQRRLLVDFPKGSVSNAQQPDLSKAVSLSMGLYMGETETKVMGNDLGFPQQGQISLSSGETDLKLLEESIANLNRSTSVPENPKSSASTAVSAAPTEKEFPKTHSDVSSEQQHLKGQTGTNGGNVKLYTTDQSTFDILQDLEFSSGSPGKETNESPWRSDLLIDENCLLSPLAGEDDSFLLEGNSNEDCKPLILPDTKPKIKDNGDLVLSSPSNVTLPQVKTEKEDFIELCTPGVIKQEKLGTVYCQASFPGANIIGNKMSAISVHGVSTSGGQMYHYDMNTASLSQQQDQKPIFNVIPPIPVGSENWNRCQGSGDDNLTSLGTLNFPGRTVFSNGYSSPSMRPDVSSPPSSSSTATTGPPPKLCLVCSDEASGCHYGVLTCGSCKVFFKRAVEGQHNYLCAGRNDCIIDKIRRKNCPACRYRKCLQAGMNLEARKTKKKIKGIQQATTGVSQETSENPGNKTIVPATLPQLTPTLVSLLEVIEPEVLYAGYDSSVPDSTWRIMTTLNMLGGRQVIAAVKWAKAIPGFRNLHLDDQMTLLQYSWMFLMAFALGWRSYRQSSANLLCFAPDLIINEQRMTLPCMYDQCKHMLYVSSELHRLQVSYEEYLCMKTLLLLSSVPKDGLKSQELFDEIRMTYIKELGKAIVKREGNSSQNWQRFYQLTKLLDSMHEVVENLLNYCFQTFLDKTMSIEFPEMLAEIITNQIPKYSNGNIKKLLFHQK
Protocol: CV1 cells were maintained in MEM supplemented with 10% FBS. Transcriptional assays were performed by seeding 12 mL of cells at a density of 250,000 cells/mL into a T-75 cell culture flask in MEM supplemented with 5% charcoal-stripped serum and allowed to attach overnight. Cells were transiently transfected using FuGENE 6 (Roche Applied Science). […] Transfected cells were incubated overnight then split into four 96-well tissue culture plates and incubated for 4 hr followed by compound addition. […] The final agonist concentration used in the antagonist assays was 10 nM.

PR-A = target: T2, PR-A (Homo sapiens, UniProt P06401); experiment: PR-A transcriptional reporter assay, agonist mode (HEPG2 cells); type: cell-based; parameters: subcloning full-length PRa into pCMX; expressed in transfected cells; host or cells: HEPG2; settings: % of maximal R5020-stimulated activity
T2 sequence (P06401 1-769 isoform P06401-2): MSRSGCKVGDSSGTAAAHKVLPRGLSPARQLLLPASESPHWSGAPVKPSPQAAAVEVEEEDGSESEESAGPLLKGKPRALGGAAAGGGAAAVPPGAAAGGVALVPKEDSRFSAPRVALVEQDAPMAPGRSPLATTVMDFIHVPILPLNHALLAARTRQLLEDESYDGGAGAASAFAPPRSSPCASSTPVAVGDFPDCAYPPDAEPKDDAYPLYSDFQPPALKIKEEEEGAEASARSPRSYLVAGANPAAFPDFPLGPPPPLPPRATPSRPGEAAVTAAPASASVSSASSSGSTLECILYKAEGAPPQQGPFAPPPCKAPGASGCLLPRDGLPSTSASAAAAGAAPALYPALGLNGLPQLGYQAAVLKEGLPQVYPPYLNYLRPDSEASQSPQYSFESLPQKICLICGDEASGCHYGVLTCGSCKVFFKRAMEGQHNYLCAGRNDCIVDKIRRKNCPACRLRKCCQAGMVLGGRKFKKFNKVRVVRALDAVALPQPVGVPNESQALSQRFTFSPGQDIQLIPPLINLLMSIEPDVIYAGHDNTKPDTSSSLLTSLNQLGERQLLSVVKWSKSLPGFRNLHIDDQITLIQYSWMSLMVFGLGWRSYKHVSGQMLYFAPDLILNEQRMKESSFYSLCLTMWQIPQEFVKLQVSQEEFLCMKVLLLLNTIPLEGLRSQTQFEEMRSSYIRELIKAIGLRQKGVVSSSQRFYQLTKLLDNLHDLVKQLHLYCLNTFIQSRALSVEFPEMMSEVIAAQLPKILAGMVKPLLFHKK
Protocol: (§1) Transcriptional assays were performed by seeding 100 μL of cells at a density of 250,000 cells/mL into 96-well cell culture plates in RPMI 1640 supplemented with 5% charcoal-stripped serum and allowed to attach overnight. […] Triplicate transfections were performed using 418 ng reporter vector (2X PRE-Luciferase for PR-A and PR-B, MMTV-Luciferase for MR), 50 ng CMVpRL (normalization vector), 10 ng NHR expression vector (CMX-PR-A, pCDNA-PR-B or 6R-MR), and 0.7 μL lipofectin. […] The final agonist concentration used in the antagonist assays was 1 nM. Following 24 hr incubation, the medium was removed and the cells were lysed in 40 μL of lysis buffer (25 mM Tris Phosphate, 2 mM CDTA, 10% Glycerol, 0.5% Triton X-100, 2 mM DTT). Firefly luciferase activity was measured immediately following the addition of 40 μL luciferase buffer (20 mM tricine, 0.1 mM EDTA, 1.07 mM (MgCO3)4 Mg(OH)2· 5H2O, 2.67 mM MgSO4, 33.3 mM DTT, 270 μM Coenzyme A, 470 μM luciferin, 530 μM ATP).

PR-B = target: T3, PR-B (Homo sapiens, UniProt P06401); experiment: PR-B transcriptional reporter assay, agonist mode (HEPG2 cells); type: cell-based; settings: % of maximal R5020-stimulated activity
T3 construct: cloning full-length human PRb into pCDNA; expressed in transfected cells; host or cells: HEPG2
T3 sequence (P06401 1-933): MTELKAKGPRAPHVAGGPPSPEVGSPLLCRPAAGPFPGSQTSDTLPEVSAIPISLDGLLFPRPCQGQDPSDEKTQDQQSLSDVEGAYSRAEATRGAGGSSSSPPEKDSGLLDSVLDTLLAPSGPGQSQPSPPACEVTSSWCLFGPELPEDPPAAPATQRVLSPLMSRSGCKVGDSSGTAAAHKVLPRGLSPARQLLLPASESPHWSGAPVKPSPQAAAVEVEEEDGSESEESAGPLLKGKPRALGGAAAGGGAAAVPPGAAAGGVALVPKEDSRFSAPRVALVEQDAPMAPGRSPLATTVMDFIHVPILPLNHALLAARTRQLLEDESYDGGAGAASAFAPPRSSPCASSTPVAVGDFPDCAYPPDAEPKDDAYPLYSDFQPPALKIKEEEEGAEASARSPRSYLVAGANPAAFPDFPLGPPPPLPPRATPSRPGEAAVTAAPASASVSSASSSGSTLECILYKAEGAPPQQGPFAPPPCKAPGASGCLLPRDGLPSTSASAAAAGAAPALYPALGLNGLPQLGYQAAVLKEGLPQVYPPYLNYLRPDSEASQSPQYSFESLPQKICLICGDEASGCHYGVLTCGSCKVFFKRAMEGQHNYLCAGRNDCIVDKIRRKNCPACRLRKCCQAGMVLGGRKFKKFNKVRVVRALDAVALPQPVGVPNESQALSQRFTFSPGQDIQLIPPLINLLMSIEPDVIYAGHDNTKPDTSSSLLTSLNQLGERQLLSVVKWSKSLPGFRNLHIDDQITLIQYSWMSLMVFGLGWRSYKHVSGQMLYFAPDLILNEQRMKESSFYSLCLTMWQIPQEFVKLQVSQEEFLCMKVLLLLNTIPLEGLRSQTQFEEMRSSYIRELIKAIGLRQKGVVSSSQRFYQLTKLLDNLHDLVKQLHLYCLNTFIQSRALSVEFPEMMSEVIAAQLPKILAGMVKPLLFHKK

MR = target: T4, MR (Homo sapiens, UniProt P08235); experiment: MR transcriptional reporter assay, agonist mode (HEPG2 cells); type: cell-based; settings: % of maximal aldosterone-stimulated activity
T4 construct: expressed in transfected cells; host or cells: HEPG2
T4 sequence (P08235 1-984): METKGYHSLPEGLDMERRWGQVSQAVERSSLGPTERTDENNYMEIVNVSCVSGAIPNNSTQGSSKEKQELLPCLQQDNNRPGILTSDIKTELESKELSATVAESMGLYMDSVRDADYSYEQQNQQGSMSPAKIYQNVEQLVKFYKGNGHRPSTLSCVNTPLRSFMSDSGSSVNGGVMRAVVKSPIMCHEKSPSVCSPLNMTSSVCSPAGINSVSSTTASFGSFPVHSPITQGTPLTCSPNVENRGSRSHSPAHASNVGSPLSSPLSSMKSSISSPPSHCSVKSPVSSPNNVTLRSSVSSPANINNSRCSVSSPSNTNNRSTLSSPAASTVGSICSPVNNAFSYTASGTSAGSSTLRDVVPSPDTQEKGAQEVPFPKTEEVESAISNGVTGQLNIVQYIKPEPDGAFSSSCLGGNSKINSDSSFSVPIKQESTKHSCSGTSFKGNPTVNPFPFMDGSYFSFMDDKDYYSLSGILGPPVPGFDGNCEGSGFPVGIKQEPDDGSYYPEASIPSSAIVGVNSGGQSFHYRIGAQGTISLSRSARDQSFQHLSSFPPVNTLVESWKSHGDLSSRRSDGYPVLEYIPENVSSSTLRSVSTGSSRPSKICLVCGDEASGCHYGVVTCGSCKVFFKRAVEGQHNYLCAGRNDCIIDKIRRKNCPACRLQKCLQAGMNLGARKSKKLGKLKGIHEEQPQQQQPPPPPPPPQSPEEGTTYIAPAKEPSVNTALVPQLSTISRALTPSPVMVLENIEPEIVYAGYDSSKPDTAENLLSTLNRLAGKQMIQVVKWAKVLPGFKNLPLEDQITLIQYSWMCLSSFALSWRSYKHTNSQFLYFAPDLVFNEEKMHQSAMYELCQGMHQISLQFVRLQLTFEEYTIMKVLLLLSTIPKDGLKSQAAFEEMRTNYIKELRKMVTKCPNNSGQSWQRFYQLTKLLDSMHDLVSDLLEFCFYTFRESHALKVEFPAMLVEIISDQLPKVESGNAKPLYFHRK
Protocol: as §1

[1] = target: T5, human estrogen receptor alpha, GST-tagged ESR1 ligand binding domain, residues S282-V595, wild-type sequence (human, UniProt P03372 282-595); experiment: FRET or BRET; cell-free TR-FRET PGC1α recruitment assay; GST-ERα LBD (3x solution 22 nM) detected with Tb-anti-GST antibody (3x mix 15 nM), Fluorescein-PGC1α peptide (3x mix 750 nM), estradiol (3x mix 12 nM; agonist at EC80), TR-FRET Co-regulator Buffer E with 7.5 mM DTT, 2 hr at room temperature; GDC-0810 titrated as small-molecule competitor; settings: both partners purified
T5 construct: Detected in the TR-FRET assay through a LanthaScreen Tb-anti-GST antibody; also called ER.WT; ERα LBD
T5 sequence (looked up): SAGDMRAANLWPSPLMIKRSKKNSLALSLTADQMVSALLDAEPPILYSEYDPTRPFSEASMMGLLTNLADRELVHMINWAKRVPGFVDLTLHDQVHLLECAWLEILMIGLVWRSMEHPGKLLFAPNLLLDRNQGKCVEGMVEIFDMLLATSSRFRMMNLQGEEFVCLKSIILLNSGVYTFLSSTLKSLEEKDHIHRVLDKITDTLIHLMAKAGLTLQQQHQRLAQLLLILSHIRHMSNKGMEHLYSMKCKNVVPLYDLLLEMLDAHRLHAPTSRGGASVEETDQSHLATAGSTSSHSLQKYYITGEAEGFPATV

CC#C[C@]1(O)CC[C@H]2[C@@H]3CCC4=CC(=O)CCC4=C3[C@@H](c3ccc(N(C)C)cc3)C[C@@]21C [RU-486] was tested, and the Emax (GR) was 8.06 ± 0.66%, the Emax (PR-A) was 13.3 ± 10.2% and the Emax (PR-B) was 3.25 ± 1.17%.

For CC(=O)S[C@@H]1CC2=CC(=O)CC[C@]2(C)[C@H]2CC[C@@]3(C)[C@@H](CC[C@@]34CCC(=O)O4)[C@H]12 [Spironolactone], the Emax (MR) was 6.24 ± 0.37%.

B1: Fluorescein-PGC1α peptide (peptide)
peptide: EAEEPSLLKKLLLAPANTQ
modifications: also: fluorescein (position not given here)
notes: source: bought: Life Technologies PV4421
B1: binds [1].
